Data published in patent US11325938B2, “CD73 inhibitors” (ORIC Pharmaceuticals, Inc., priority 2018, dated 2022).

molecular target: CD73 (Homo sapiens (Human), UniProt P21589); assay: Biochemical assay: inhibition of CD73 activity (AMP hydrolysis, Malachite Green readout); settings: CD73 0.3208 nM, AMP 15 μM, 25 mM Tris-HCl pH 7.4, RT, absorbance 620 nm
Procedure, shortened: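 Human CD73 (320 pM final) preincubated 15 min at RT with compounds (10-point ½-log titration from 100 μM, duplicates) in 25 mM Tris-HCl pH 7.4, 5 mM MgCl2, 0.01% Brij-35, 0.01% BSA. 15 μM AMP added, 10 min at RT; released phosphate read by Malachite Green absorbance; IC50 determined.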

Sequence of CD73 (P21589 27-574): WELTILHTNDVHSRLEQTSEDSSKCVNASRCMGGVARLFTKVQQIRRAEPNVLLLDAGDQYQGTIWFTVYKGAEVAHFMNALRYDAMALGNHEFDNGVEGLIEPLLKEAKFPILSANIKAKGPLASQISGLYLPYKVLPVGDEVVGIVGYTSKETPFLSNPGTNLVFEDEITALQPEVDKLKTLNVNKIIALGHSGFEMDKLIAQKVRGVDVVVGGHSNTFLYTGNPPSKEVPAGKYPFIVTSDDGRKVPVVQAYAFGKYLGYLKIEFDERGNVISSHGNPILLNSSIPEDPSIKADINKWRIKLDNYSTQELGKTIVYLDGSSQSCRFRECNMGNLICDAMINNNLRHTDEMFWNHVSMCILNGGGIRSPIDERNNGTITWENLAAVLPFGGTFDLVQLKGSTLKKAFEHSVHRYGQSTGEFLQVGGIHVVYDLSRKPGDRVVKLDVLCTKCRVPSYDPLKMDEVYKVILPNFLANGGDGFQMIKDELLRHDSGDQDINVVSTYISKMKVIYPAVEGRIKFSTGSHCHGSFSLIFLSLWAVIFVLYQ

Structure (SMILES)	IC50
O=P(O)(O)C(CO)OC[C@H]1O[C@@H](n2ncc3c(NC4CCCC4)cc(Cl)nc32)[C@H](O)[C@@H]1O (stereo partly drawn) [Example 57, (1-(((2R,3S,4R,5R)-5-(6-Chloro-4-(cyclopentylamino)-1H-pyrazolo[3,4-b]pyridin-1-yl)-3,4-dihydroxytetrahydrofuran-2-yl)methoxy)-2-hydroxyethyl)phosphonic acid]	≤ 100 nM
CCOCC(CO)(OC[C@H]1O[C@@H](n2ncc3c(NC4CCCC4)nc(Cl)nc32)[C@H](O)[C@@H]1O)P(=O)(O)O (mixture of isomers) [Example 169, rac-(2-(((2R,3S,4R,5R)-5-(6-chloro-4-(cyclopentylamino)-1H-pyrazolo[3,4-d]pyrimidin-1-yl)-3,4-dihydroxytetrahydrofuran-2-yl)methoxy)-1-ethoxy-3-hydroxypropan-2-yl)phosphonic acid]	≤ 100 nM
COC[C@](C)(OC[C@H]1O[C@@H](n2ncc3c(NC4CCCC4)nc(Cl)nc32)[C@H](O)[C@@H]1O)P(=O)(O)O [Example 69, ((R)-2-(((2R,3S,4R,5R)-5-(6-chloro-4-(cyclopentylamino)-1H-pyrazolo[3,4-d]pyrimidin-1-yl)-3,4-dihydroxytetrahydrofuran-2-yl)methoxy)-1-methoxypropan-2-yl)phosphonic acid]	≤ 100 nM
COCC(C)(OC[C@H]1O[C@@H](n2ncc3c(N[C@@H]4CCc5ccccc54)nc(Cl)nc32)[C@H](O)[C@@H]1O)P(=O)(O)O (stereo partly drawn) [Example 77, (2-(((2R,3S,4R,5R)-5-(6-chloro-4-(((R)-2,3-dihydro-1H-inden-1-yl)amino)-1H-pyrazolo[3,4-d]pyrimidin-1-yl)-3,4-dihydroxytetrahydrofuran-2-yl)methoxy)-1-methoxypropan-2-yl)phosphonic acid]	≤ 100 nM
O=P(O)(O)C(CO)(Cc1ccccn1)OC[C@H]1O[C@@H](n2ncc3c(NC4CCCC4)nc(Cl)nc32)[C@H](O)[C@@H]1O (stereo partly drawn) [Example 93, (2-(((2R,3S,4R,5R)-5-(6-chloro-4-(cyclopentylamino)-1H-pyrazolo[3,4-d]pyrimidin-1-yl)-3,4-dihydroxytetrahydrofuran-2-yl)methoxy)-1-hydroxy-3-(pyridin-2-yl)propan-2-yl)phosphonic acid]	≤ 100 nM
CC(CO)(P(=O)(O)O)S(=O)(=O)C[C@H]1O[C@@H](n2ncc3c(NC4CCCC4)nc(Cl)nc32)[C@H](O)[C@@H]1O (stereo partly drawn) [Example 8, (2-((((2S,3S,4R,5R)-5-(6-Chloro-4-(cyclopentylamino)-1H-pyrazolo[3,4-d]pyrimidin-1-yl)-3,4-dihydroxytetrahydrofuran-2-yl)methyl)sulfonyl)-1-hydroxypropan-2-yl)phosphonic acid]	≤ 100 nM
C[C@](CO)(OC[C@H]1O[C@@H](n2ncc3c(NC4CCCC4)nc(Cl)nc32)[C@H](O)[C@@H]1O)P(=O)(O)O [Example 62, ((S)-2-(((2R,3S,4R,5R)-5-(6-chloro-4-(cyclopentylamino)-1H-pyrazolo[3,4-d]pyrimidin-1-yl)-3,4-dihydroxytetrahydrofuran-2-yl)methoxy)-1-hydroxypropan-2-yl)phosphonic acid]	≤ 100 nM
C[C@](CO)(OC[C@H]1O[C@@H](n2ncc3c(NC4CCCC4)nc(C#CCO)nc32)[C@H](O)[C@@H]1O)P(=O)(O)O (racemic) [Example 199, rac-((R)-2-(((2S,3R,4S,5S)-5-(4-(cyclopentylamino)-6-(3-hydroxyprop-1-yn-1 yl)-1H-pyrazolo[3,4-d]pyrimidin-1-yl)-3,4-dihydroxytetrahydrofuran-2-yl)methoxy)-1-hydroxypropan-2-yl)phosphonic acid]	≤ 100 nM
CCC(OC[C@H]1O[C@@H](n2ncc3c(NC4CCCC4)nc(Cl)nc32)[C@H](O)[C@@H]1O)P(=O)(O)O (stereo partly drawn) [Example 14, (1-(((2R,3S,4R,5R)-5-(6-chloro-4-(cyclopentylamino)-1H-pyrazolo[3,4-d]pyrimidin-1-yl)-3,4-dihydroxytetrahydrofuran-2-yl)methoxy)propyl)phosphonic acid]	≤ 100 nM
CC(CO)(OC[C@H]1O[C@@H](n2ncc3c(NC4CCCC4)nc(OCCO)nc32)[C@H](O)[C@@H]1O)P(=O)(O)O (stereo partly drawn) [Example 68, (2-(((2R,3S,4R,5R)-5-(4-(cyclopentylamino)-6-(2-hydroxyethoxy)-1H-pyrazolo[3,4-d]pyrimidin-1-yl)-3,4-dihydroxytetrahydrofuran-2-yl)methoxy)-1-hydroxypropan-2-yl)phosphonic acid]	≤ 100 nM
C[C@@](CO)(OC[C@H]1O[C@@H](n2ncc3c(NC4CCCC4)nc(Cl)nc32)[C@H](O)[C@@H]1O)P(=O)(O)O [Example 63, ((R)-2-(((2R,3S,4R,5R)-5-(6-chloro-4-(cyclopentylamino)-1H-pyrazolo[3,4-d]pyrimidin-1-yl)-3,4-dihydroxytetrahydrofuran-2-yl)methoxy)-1-hydroxypropan-2-yl)phosphonic acid]	≤ 100 nM
C[C@@](COCCO)(OC[C@H]1O[C@@H](n2ncc3c(NC4CCCC4)nc(Cl)nc32)[C@H](O)[C@@H]1O)P(=O)(O)O [Example 124, ((R)-2-(((2R,3S,4R,5R)-5-(6-chloro-4-(cyclopentylamino)-1H-pyrazolo[3,4-d]pyrimidin-1-yl)-3,4-dihydroxytetrahydrofuran-2-yl)methoxy)-1-(2-hydroxyethoxy)propan-2-yl)phosphonic acid]	≤ 100 nM
O=P(O)(O)COC[C@H]1O[C@@H](n2nnc3c(NC4CCC4)cc(Cl)nc32)[C@H](O)[C@@H]1O [Example 23, ((((2R,3S,4R,5R)-5-(5-chloro-7-(cyclobutylamino)-3H-[1,2,3]triazolo[4,5-b]pyridin-3-yl)-3,4-dihydroxytetrahydrofuran-2-yl)methoxy)methyl)phosphonic acid]	≤ 100 nM
O=P(O)(O)C(OC[C@H]1O[C@@H](n2ncc3c(NC4CCCC4)nc(Cl)nc32)[C@H](O)[C@@H]1O)c1nnn[nH]1 (stereo partly drawn) [Example 35, ((((2R,3S,4R,5R)-5-(6-chloro-4-(cyclopentylamino)-1H-pyrazolo[3,4-d]pyrimidin-1-yl)-3,4-dihydroxytetrahydrofuran-2-yl)methoxy)(1H-tetrazol-5-yl)methyl)phosphonic acid]	≤ 100 nM
O=C(O)COCC(CO)(OC[C@H]1O[C@@H](n2ncc3c(NC4CCCC4)nc(Cl)nc32)[C@H](O)[C@@H]1O)P(=O)(O)O (mixture of isomers) [Example 198, rac-2-(2-(((2R,3S,4R,5R)-5-(6-chloro-4-(cyclopentylamino)-1H-pyrazolo[3,4-d]pyrimidin-1-yl)-3,4-dihydroxytetrahydrofuran-2-yl)methoxy)-3-hydroxy-2-phosphonopropoxy)acetic acid]	≤ 100 nM
O=P(O)(O)C(CCO)S(=O)(=O)C[C@H]1O[C@@H](n2ncc3c(NC4CCCC4)nc(Cl)nc32)[C@H](O)[C@@H]1O (stereo partly drawn) [Example 34, (1-((((2S,3S,4R,5R)-5-(6-chloro-4-(cyclopentylamino)-1H-pyrazolo[3,4-d]pyrimidin-1-yl)-3,4-dihydroxytetrahydrofuran-2-yl)methyl)sulfonyl)-3-hydroxypropyl)phosphonic acid]	100 to 1000 nM
O=P(O)(O)C(CO)(CCO)OC[C@H]1O[C@@H](n2ncc3c(NC4CCCC4)nc(Br)nc32)[C@H](O)[C@@H]1O (stereo partly drawn) [Example 37, (2-(((2R,3S,4R,5R)-5-(6-bromo-4-(cyclopentylamino)-1H-pyrazolo[3,4-d]pyrimidin-1-yl)-3,4-dihydroxytetrahydrofuran-2-yl)methoxy)-1,4-dihydrobutan-2-yl)phosphonic acid]	≤ 100 nM
